The subject of this data set is rodent carcinogenicity bioassays, tumor incidence. Put plainly: CCRIS carcinogenicity studies. The method, boiled down: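 NCI-built, expert-reviewed records of carcinogenicity and related test outcomes (mutagenicity, tumor promotion/inhibition) compiled from published and report sources, historical span 1985-2011, not updated.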

The source made the active and inactive calls. No rule for the calls is given here.

As for `COC(=O)c1c(Cl)c(Cl)c(C(=O)OC)c(Cl)c1Cl`, the carcinogen call (Species: Mouse, Strain/Sex: CD-1/Female (60/group), Route: Oral, Dose: 0, 100, 1,000, 3,500, 7,500 ppm in diet for 2 yr, Dose: 0, 100, 1,000, 3,500, 7,500 ppm in diet for 2 yr, Tumor Site: Type of Lesion: Liver: Hepatocellular tumors (Significant only at highest dose)) was “active; positive (study details not given in source; purity 96.7%)”; the carcinogen call (Species: Mouse, Strain/Sex: CD-1/Male (60/group), Route: Oral, Dose: 0, 100, 1,000, 3,500, 7,500 ppm in diet for 2 yr, Dose: 0, 100, 1,000, 3,500, 7,500 ppm in diet for 2 yr) is “inactive; negative (study details not given in source; purity 96.7%)”; the carcinogen call (Species: Rat, Strain/Sex: Sprague-Dawley/Female (60/group), Route: Oral, Dose: 0, 1, 10, 50, 500, 1,000 mg/kg/day in diet for 2 yr, Dose: 0, 1, 10, 50, 500, 1,000 mg/kg/day in diet for 2 yr, Tumor Site: Type of Lesion: Thyroid: Follicular cell adenomas. Liver: Hepatocellular tumors) was “active; positive (as evaluated by ca dpr; study details not given in source; purity 97.7”; the carcinogen call (Species: Rat, Strain/Sex: Sprague-Dawley/Male (60/group), Route: Oral, Dose: 0, 1, 10, 50, 500, 1,000 mg/kg/day in diet for 2 yr, Dose: 0, 1, 10, 50, 500, 1,000 mg/kg/day in diet for 2 yr, Tumor Site: Type of Lesion: Thyroid: Follicular cell adenomas) was “active; positive (evaluated as adverse effect by ca dpr; study details not given in sour”.

Take `CI`: the carcinogen call reads like this: (Species: MOUSE, Route: INTRAPERITONEAL, Tumor Site: Type of Lesion: LUNG) “active; positive”; (Species: RAT, Route: SUBCUTANEOUS, Tumor Site: Type of Lesion: INJECTION SITE) “active; positive”; (Species: Rat, Strain/Sex: Crl:CD(SD)IGS BR/Female (50/Group), Route: Inhalation (whole body), Dose: 0, 5, 20, 60 ppm for 2 yr, study duration 2 yr, Dose: 0, 5, 20, 60 ppm for 2 yr, study duration 2 yr, Tumor Site: Type of Lesion: Thyroid: follicular cell adenoma (60 ppm)) “active; positive”; (Species: Rat, Strain/Sex: Crl:CD(SD)IGS BR/Male (50/Group), Route: Inhalation (whole body), Dose: 0, 5, 20, 60 ppm for 2 yr, study duration 2 yr, Dose: 0, 5, 20, 60 ppm for 2 yr, study duration 2 yr, Tumor Site: Type of Lesion: Thyroid: follicular cell adenoma (60 ppm)) “active; positive”.

As for `C1O[C@@H]1[C@H]1CO1`, the carcinogen call was “active; positive” (Species: MOUSE, Strain/Sex: B6C3F1/FEMALE, Route: INHALATION, Dose: 0, 2.5, 5.0 PPM 6 HR/D 5 D/WK FOR 6 WK (STUDY DURATION: 84 WK), Dose: 0, 2.5, 5.0 PPM 6 HR/D 5 D/WK FOR 6 WK (STUDY DURATION: 84 WK), Tumor Site: Type of Lesion: HARDERIAN GLAND: TUMOR) and “active; positive” (Species: RAT, Strain/Sex: SPRAGUE-DAWLEY/FEMALE, Route: INHALATION, Dose: 0, 2.5, 5.0 PPM 6 HR/D 5 D/WK FOR 6 WK (STUDY DURATION: 84 WK), Dose: 0, 2.5, 5.0 PPM 6 HR/D 5 D/WK FOR 6 WK (STUDY DURATION: 84 WK), Tumor Site: Type of Lesion: NASAL MUCOSA: TUMOR).

For the compound `CCCCCCCCCCCCc1ccccc1`, where the note is “Species: MOUSE, Strain/Sex: HR/HR OSLO/MALE, FEMALE, Route: DERMAL, Dose: 0, 16, 80% IN ACETONE 2/WK FOR 78 WK (STUDY DURATION: 80 WK), Dose: 0, 16, 80% IN ACETONE 2/WK FOR 78 WK (STUDY DURATION: 80 WK), Tumor Site: Type of Lesion: SKIN: TUMOR”, the carcinogen call was “active; positive”.

Turning to `C=CCN(N=O)C(N)=O`, the carcinogen call (Species: RAT, Strain/Sex: F344/FEMALE, Route: GAVAGE, Dose: 0, 13 MG/ML (TOTAL DOSE 0; 1.2 MMOL) IN 2 ML ETHYL ACETATE AND CORN OIL (1:2) 2/WK FOR 30 WK (STUDY DURATION: LIFETIME), Dose: 0, 13 MG/ML (TOTAL DOSE 0; 1.2 MMOL) IN 2 ML ETHYL ACETATE AND CORN OIL (1:2) 2/WK FOR 30 WK (STUDY DURATION: LIFETIME), Tumor Site: Type of Lesion: FORESTOMACH: SQUAMOUS CELL CARCINOMA, MAMMARY GLAND: TUMOR) was “active; positive”; the carcinogen call (Species: RAT, Strain/Sex: F344/FEMALE, Route: GAVAGE, Dose: 0, 13 MG/ML IN 0.2 ML ETHYL ACETATE AND CORN OIL 2/WK FOR 30 WK (STUDY DURATION: LIFESPAN), Tumor Site: Type of Lesion: FORESTOMACH: TUMOR, MAMMARY GLAND: TUMOR) was “active; positive”; the carcinogen call (Species: RAT, Strain/Sex: F344/MALE, Route: GAVAGE, Dose: 0, 13 MG/ML (TOTAL DOSE 0; 1.2 MMOL) IN 2 ML ETHYL ACETATE AND CORN OIL (1:2) 2/WK FOR 30 WK (STUDY DURATION: LIFETIME), Dose: 0, 13 MG/ML (TOTAL DOSE 0; 1.2 MMOL) IN 2 ML ETHYL ACETATE AND CORN OIL (1:2) 2/WK FOR 30 WK (STUDY DURATION: LIFETIME), Tumor Site: Type of Lesion: FORESTOMACH: SQUAMOUS CELL CARCINOMA, LUNG: TUMOR, COLON: TUMOR, ZYMBAL GLAND: TUMOR, Tumor Site: Type of Lesion: FORESTOMACH: SQUAMOUS CELL CARCINOMA, LUNG: TUMOR, COLON: TUMOR, ZYMBAL GLAND: TUMOR) is “active; positive”; the carcinogen call (Species: RAT, Strain/Sex: F344/MALE, Route: GAVAGE, Dose: 0, 13 MG/ML IN 0.2 ML ETHYL ACETATE AND CORN OIL 2/WK FOR 30 WK (STUDY DURATION: LIFESPAN), Tumor Site: Type of Lesion: FORESTOMACH: TUMOR, LUNG: COLON: TUMOR, ZYMBAL GLAND: TUMOR, Tumor Site: Type of Lesion: FORESTOMACH: TUMOR, LUNG: COLON: TUMOR, ZYMBAL GLAND: TUMOR) was “active; positive”.

Regarding `[P]#[In]`, the carcinogen call reads like this: (Species: MOUSE, Strain/Sex: B6C3F1/FEMALE, Route: INHALATION, Dose: 0, 0.03, 0.1, 0.3 MG/M3 AEROSOL FOR 6 HR/D 5 D/WK FOR 105 WK (CONTROL AND LOW DOSE GROUPS) OR 21 WK (MID AND HIGH DOSE G, Dose: 0, 0.03, 0.1, 0.3 MG/M3 AEROSOL FOR 6 HR/D 5 D/WK FOR 105 WK (CONTROL AND LOW DOSE GROUPS) OR 21 WK (MID AND HIGH DOSE G, Tumor Site: Type of Lesion: LIVER: HEPATOCELLULAR ADENOMA, HEPATOCELLULAR CARCINOMA, HEPATOCELLULAR ADENOMA OR CARCINOMA, LUNG: ALVEOLAR/BRONCHIOLAR) “active; positive”; (Species: MOUSE, Strain/Sex: B6C3F1/MALE, Route: INHALATION, Dose: 0, 0.03, 0.1, 0.3 MG/M3 AEROSOL FOR 6 HR/D 5 D/WK FOR 105 WK (CONTROL AND LOW DOSE GROUPS) OR 21 WK (MID AND HIGH DOSE G, Dose: 0, 0.03, 0.1, 0.3 MG/M3 AEROSOL FOR 6 HR/D 5 D/WK FOR 105 WK (CONTROL AND LOW DOSE GROUPS) OR 21 WK (MID AND HIGH DOSE G, Tumor Site: Type of Lesion: LIVER: HEPATOCELLULAR ADENOMA, HEPATOCELLULAR CARCINOMA, HEPATOCELLULAR ADENOMA OR CARCINOMA, LUNG: ALVEOLAR/BRONCHIOLAR) “active; positive”; (Species: RAT, Strain/Sex: F344/FEMALE, Route: INHALATION, Dose: 0, 0.03, 0.1, 0.3 MG/M3 AEROSOL FOR 6 HR/D 5 D/WK FOR 105 WK (CONTROL AND LOW DOSE GROUPS) OR 22 WK (MID AND HIGH DOSE G, Dose: 0, 0.03, 0.1, 0.3 MG/M3 AEROSOL FOR 6 HR/D 5 D/WK FOR 105 WK (CONTROL AND LOW DOSE GROUPS) OR 22 WK (MID AND HIGH DOSE G, Tumor Site: Type of Lesion: ADRENAL MEDULLA: BENIGN PHEOCHROMOCYTOMA, LUNG: ALVEOLAR/BRONCHIOLAR ADENOMA, ALVEOLAR/BRONCHIOLAR CARCINOMA, ALVEOLAR/B) “active; positive”; (Species: RAT, Strain/Sex: F344/MALE, Route: INHALATION, Dose: 0, 0.03, 0.1, 0.3 MG/M3 AEROSOL FOR 6 HR/D 5 D/WK FOR 105 WK (CONTROL AND LOW DOSE GROUPS) OR 22 WK (MID AND HIGH DOSE G, Dose: 0, 0.03, 0.1, 0.3 MG/M3 AEROSOL FOR 6 HR/D 5 D/WK FOR 105 WK (CONTROL AND LOW DOSE GROUPS) OR 22 WK (MID AND HIGH DOSE G, Tumor Site: Type of Lesion: ADRENAL MEDULLA: BENIGN PHEOCHROMOCYTOMA, BENIGN OR MALIGNANT PHEOCHROMOCYTOMA, LUNG: ALVEOLAR/BRONCHIOLAR ADENOMA, ALVE) “active; positive”.

As for `Nc1ccc(-c2ccc(N)c(Cl)c2)cc1Cl`, the carcinogen call (Species: HAMSTER, Route: ORAL, Tumor Site: Type of Lesion: URINARY BLADDER) is “active; positive”; the carcinogen call (Species: RAT, Route: ORAL, Tumor Site: Type of Lesion: EAR (ZYMBAL GLAND), MAMMARY GLAND, INTEGUMENTARY SYSTEM (SKIN), HEMATOPOIETIC SYSTEM, URINARY BLADDER, Tumor Site: Type of Lesion: EAR (ZYMBAL GLAND), MAMMARY GLAND, INTEGUMENTARY SYSTEM (SKIN), HEMATOPOIETIC SYSTEM, URINARY BLADDER) was “active; positive”; the carcinogen call (Species: RAT, Route: SUBCUTANEOUS, Tumor Site: Type of Lesion: MAMMARY GLAND, INTEGUMENTARY SYSTEM (SKIN)) was “active; positive”.

For the origin of these results see PubChem BioAssay AID1259411 (Chemical Carcinogenesis Research Information System (CCRIS), 2018).
